Measurements: patent US5591758A, “Organic nitrates, processes for their preparation and their use in the treatment of cardiovascular diseases” (Laboratoires Hoechst, SA, priority 1991, dated 1997)
Where “and” joins values, the source holds several entries; their conditions need not be identical. Identical values can stand only once.

Tested on: anaesthetised dogs
Assay: Tachyphylaxis model on anaesthetised dogs (repeated i.d. administration)
Format: in vivo, dogs (labrador/harrier cross)
Set-up: Δdp/dt average / ΔBPs / ΔBPd / ΔLVEDP / ΔHR / ΔBPs average / ΔBPd average / ΔLVEDP average / ΔHR average: unit not given here
Conditions: for ΔBPd / ΔBPs / ΔHR / ΔLVEDP / Δdp/dt: single dog
Description: Comparison with isosorbide mononitrate (IS-5-MN).
The product (46) is tested in a tachyphylaxis model on anaesthetised dogs. IS-5-MN is used as reference substance.
8 dogs of each sex, weighing between 16 and 24 kg, are used. These dogs are the progeny of a labrador/harrier cross. Anaesthesia is induced with the aid of sodium pentobarbital (45 mg/kg i.v.) and maintained by i.v. perfusion (flow rate: 8 mg/kg/h). The animals are ventilated, with the aid of a "Bird Mark 7" respirator, using ambient air, and catheterised. […] The arterial blood gases are measured at regular intervals.
IS-5-MN is also dissolved in water and given i.d. in a dosage of 5 mg/kg in a volume of 10 ml/animal.
Three hours (in the case of IS-5-MN) or four hours (in the case of (46)) after the first administration, the compounds are readministered in the same dosage and by the same route. The haemodynamic parameter chosen for the study of the tachyphylaxis is the systolic blood pressure (BPs), insofar as this parameter is very sensitive to the administration of the compounds.

[1] = 1st administration, 5 mg/kg i.d., 5 min
[2] = 1st administration, 5 mg/kg i.d., 10 min
[3] = 1st administration, 5 mg/kg i.d., 15 min
[4] = 1st administration, 5 mg/kg i.d., 30 min
[5] = 1st administration, 5 mg/kg i.d., 60 min
[6] = 1st administration, 5 mg/kg i.d., 120 min
[7] = 1st administration, 5 mg/kg i.d., 180 min
[8] = i.d., IS-5-MN 5 mg/kg, (46) 0.75 mg/kg
[9] = n = 4, 2nd administration, 5 mg/kg i.d., 5 min
[10] = n = 4, 2nd administration, 5 mg/kg i.d., 10 min
[11] = n = 4, 2nd administration, 5 mg/kg i.d., 15 min
[12] = n = 4, 2nd administration, 5 mg/kg i.d., 30 min
[13] = n = 4, 2nd administration, 5 mg/kg i.d., 60 min
[14] = n = 4, 2nd administration, 5 mg/kg i.d., 120 min
[15] = n = 4, 2nd administration, 5 mg/kg i.d., 180 min
[16] = 1st administration, 5 mg/kg i.d., 5 min, 5 mg/kg
[17] = 1st administration, 5 mg/kg i.d., 10 min, 5 mg/kg
[18] = 1st administration, 5 mg/kg i.d., 15 min, 5 mg/kg
[19] = 1st administration, 5 mg/kg i.d., 30 min, 5 mg/kg
[20] = 1st administration, 5 mg/kg i.d., 60 min, 5 mg/kg
[21] = 1st administration, 5 mg/kg i.d., 120 min, 5 mg/kg
[22] = 1st administration, 5 mg/kg i.d., 180 min, 5 mg/kg
[23] = 2nd administration, 5 mg/kg i.d., 5 min, 5 mg/kg
[24] = 2nd administration, 5 mg/kg i.d., 10 min, 5 mg/kg
[25] = 2nd administration, 5 mg/kg i.d., 15 min, 5 mg/kg
[26] = 2nd administration, 5 mg/kg i.d., 30 min, 5 mg/kg
[27] = 2nd administration, 5 mg/kg i.d., 60 min, 5 mg/kg
[28] = 2nd administration, 5 mg/kg i.d., 120 min, 5 mg/kg
[29] = 2nd administration, 5 mg/kg i.d., 180 min, 5 mg/kg

O=[N+]([O-])O[C@@H]1CO[C@H]2[C@@H]1OC[C@@H]2O [IS-5-MN, isosorbide 5-mononitrate, reference compound]
fall in the BPs, first administration, on average (5 mg/kg i.d.): -30 mmHg | return of BP to control value after second administration (5 mg/kg i.d.): rapid return to the control value | ΔBPd average [1]: -21 | ΔBPs average [1]: -30 | ΔLVEDP average [1]: -3 | Δdp/dt average [1]: -175 | ΔBPd average [2]: -18 | ΔBPs average [2]: -26 | ΔLVEDP average [2]: -3 | Δdp/dt average [2]: -175 | ΔBPd average [3]: -16 | ΔBPs average [3]: -25 | ΔLVEDP average [3]: -3 | Δdp/dt average [3]: -150 | ΔBPd average [4]: -13 | ΔBPs average [4]: -24 | ΔLVEDP average [4]: -3 | Δdp/dt average [4]: -175 | ΔBPd average [5]: -12 | ΔBPs average [5]: -23 | ΔLVEDP average [5]: -1 | Δdp/dt average [5]: -200 | ΔBPd average [6]: 3 | ΔBPs average [6]: -5 | ΔLVEDP average [6]: -2 | Δdp/dt average [6]: 75 | ΔBPd average [7]: 3 | ΔBPs average [7]: -4 | ΔLVEDP average [7]: -2 | Δdp/dt average [7]: 100 | development of tachyphylaxis after repeated administration (dogs, two i.d. administrations): tachyphylaxis after repeated administration | maximum fall in the BP after second administration [8]: -19 mmHg | time of maximum effect on BPs after first administration [8]: 5 min | time of maximum fall in the BP after second administration [8]: 5 min | ΔBPd average [9]: -13 | ΔBPs average [9]: -19 | ΔLVEDP average [9]: -1 | Δdp/dt average [9]: -125 | ΔBPd average [10]: -11 | ΔBPs average [10]: -15 | ΔLVEDP average [10]: -2 | Δdp/dt average [10]: -75 | ΔBPd average [11]: -9 | ΔBPs average [11]: -13 | ΔLVEDP average [11]: -1 | Δdp/dt average [11]: -100 | ΔBPd average [12]: -5 | ΔBPs average [12]: -9 | ΔLVEDP average [12]: -1 | Δdp/dt average [12]: 0 | ΔBPd average [13]: -4 | ΔBPs average [13]: -7 | ΔLVEDP average [13]: -2 | Δdp/dt average [13]: 50 | ΔBPd average [14]: -5 | ΔBPs average [14]: -6 | ΔLVEDP average [14]: -1 | Δdp/dt average [14]: 100 | ΔBPd average [15]: -1 | ΔBPs average [15]: -4 | ΔLVEDP average [15]: -2 | Δdp/dt average [15]: 175 | ΔBPd [16]: -15 and -25 and -20 | ΔBPs [16]: -25 and -35 and -30 | ΔHR [16]: 0 and 5 | ΔLVEDP [16]: -3 and -4 and -2 | Δdp/dt [16]: -200 and -100 and -300 | ΔBPd [17]: -15 and -20 | ΔBPs [17]: -25 and -30 | ΔHR [17]: 0 and 5 | ΔLVEDP [17]: -3 and -5 and -1 | Δdp/dt [17]: -300 and 0 and -100 | ΔBPd [18]: -15 and -10 and -20 | ΔBPs [18]: -25 and -20 and -30 | ΔHR [18]: -5 and 5 and 0 | ΔLVEDP [18]: -3 and -5 and -1 | Δdp/dt [18]: -200 and 0 and -100 and -300 | ΔBPd [19]: -15 and -10 | ΔBPs [19]: -35 and -20 and -25 and -15 | ΔHR [19]: -15 and 5 and 0 | ΔLVEDP [19]: -1 and -5 and -3 | Δdp/dt [19]: -300 and 0 and -100 | ΔBPd [20]: -20 and 0 and -15 | ΔBPs [20]: -35 and -10 and -25 and -20 | ΔHR [20]: -20 and 10 and -5 and 0 | ΔLVEDP [20]: 0 and -2 and -3 and -1 | Δdp/dt [20]: -400 and 0 and -100 and -300 | ΔBPd [21]: 10 and 0 and -5 and 5 | ΔBPs [21]: 0 and -15 and -5 | ΔHR [21]: 0 and 10 and 5 | ΔLVEDP [21]: -1 and -3 and -2 | Δdp/dt [21]: 400 and 0 and -100 | Δdp/dt [7]: 100 | ΔBPd [22]: 5 and 0 and -5 and 10 | ΔBPs [22]: -5 and 0 and -15 and 5 | ΔHR [22]: -5 and 10 and 5 | ΔLVEDP [22]: -3 and -1 and -5 and 0 | ΔBPd [23]: -5 and -15 | ΔBPs [23]: -15 and -20 | ΔHR [23]: 0 and 5 | ΔLVEDP [23]: -2 and 0 | Δdp/dt [23]: -200 and -100 | ΔBPs (2nd administration, 5 mg/kg i.d., 10 min): -15 | ΔBPd [24]: -5 and -15 | ΔHR [24]: 0 and 5 | ΔLVEDP [24]: -2 and -1 | Δdp/dt [24]: -200 and 0 and -100 | Δdp/dt (2nd administration, 5 mg/kg i.d., 15 min): -100 | ΔBPd [25]: -5 and -15 and -10 | ΔBPs [25]: -15 and -10 | ΔHR [25]: -5 and 0 and 5 | ΔLVEDP [25]: -2 and -1 and 0 | Δdp/dt (2nd administration, 5 mg/kg i.d., 30 min): 0 | ΔBPd [26]: 0 and -10 and -5 | ΔBPs [26]: -10 and -5 | ΔHR [26]: 0 and 5 | ΔLVEDP [26]: -2 and -1 and 0 | ΔBPd [27]: 5 and -10 and 0 | ΔBPs [27]: 0 and -10 and -15 and -5 | ΔHR [27]: 5 and 0 and -5 | ΔLVEDP [27]: -2 and -3 and -1 | Δdp/dt [27]: 100 and 0 and -100 and 200 | ΔBPd [28]: 0 and -15 and -5 | ΔBPs [28]: -5 and -15 and 0 | ΔHR [28]: 5 and -5 and 10 | ΔLVEDP [28]: -2 and 1 | Δdp/dt [28]: 0 and 100 and 300 | ΔBPd [29]: 0 and -5 | ΔBPs [29]: -5 and 0 | ΔHR [29]: 5 and 15 and 0 | ΔLVEDP [29]: -2 and -3 and -1 | Δdp/dt [29]: 100 and 200 and 300
